According to the OPERA property sets (Mansouri et al. 2018):

For ClC1=C(Cl)[C@]2(Cl)[C@H]3[C@H]([C@@H]4C=C[C@H]3C4)[C@@]1(Cl)C2(Cl)Cl (racemic), which logP is on record?
The logP was 6.5.

Which logP does the source give for CCCCc1ccccc1 here?
The logP was 4.38.

Which logP does the source give for Clc1cccc(Cl)c1-c1c(Cl)cccc1Cl here?
The logP was 5.94.

With COP(=S)(OC)Oc1cc(Cl)c(I)cc1Cl as the molecule, how does the logP read?
The logP was 5.51.

For CCOP(=S)(OCC)Oc1cc(Cl)c(Br)cc1Cl, which logP is on record?
Its logP is 6.15.

With CCc1ccc2c(c1)C(=O)c1ccccc1C2=O as the molecule, how does the logP read?
The logP was 4.37.

With Clc1ccc(-c2ccc(Cl)c(Cl)c2)cc1Cl as the molecule, how does the logP read?
The logP was 6.63.

For ClC1=C(Cl)[C@]2(Cl)[C@@H]3[C@@H]4C[C@@H]([C@H]5O[C@@H]45)[C@@H]3[C@@]1(Cl)C2(Cl)Cl (single isomer, unassigned), which logP is on record?
Its logP is 5.4.

For Clc1c(Cl)c(Cl)c(-c2ccccc2)c(Cl)c1Cl, which logP is on record?
Its logP is 6.75.

Which logP does the source give for Clc1c(Cl)c(Cl)c(Cl)c(Cl)c1Cl here?
Its logP is 5.73.

With Clc1cc(Cl)c(Cl)c(-c2c(Cl)c(Cl)cc(Cl)c2Cl)c1Cl as the molecule, how does the logP read?
The logP was 7.73.

For CCCCC(CC)COC(=O)c1ccccc1C(=O)OCC(CC)CCCC (stereo not drawn), which logP is on record?
Its logP is 7.6.

For Clc1cc(-c2cc(Cl)c(Cl)c(Cl)c2)cc(Cl)c1Cl, which logP is on record?
The logP was 7.41.
